For 31 compounds, IC50 results are on record in patent US20190106460A1, “BINDING INHIBITORS OF THE BETA. TRANSDUCIN REPEAT-CONTAINING PROTEIN” (priority 2011, published 2019).

Read-outs that look alike come from different tables or passages of the source. Starred links: 1 amine or outer side, 2 acyl side, 3 side chain; linkers in the order of their positions; H or OH if unused. Non-standard residues stand in square brackets, D forms with d. Residues, ends and D or L forms follow the SMILES beside them. No end group written: not given here. *: point of attachment. Phe(4-NO2) = N[C@@H](Cc1ccc([N+](=O)[O-])cc1)C(=O)O; Benzoyl(2-COOH) = O=C(O)c1ccccc1C(=O)*; Phe(3-F) = N[C@@H](Cc1cccc(F)c1)C(=O)O; Phe(4-F) = N[C@@H](Cc1ccc(F)cc1)C(=O)O; 1Nal = N[C@@H](Cc1cccc2ccccc12)C(=O)O; Phe(2-F) = N[C@@H](Cc1ccccc1F)C(=O)O; pS = N[C@@H](COP(=O)(O)O)C(=O)O; Suc = O=C(CCC(=O)[*:2])[*:1]; X6 = O=C(O)C1CCC(C(=O)*)CC1

The target of this assay is βTrCP (Homo sapiens, UniProt Q9Y297). In words: Fluorescence polarisation (FP) binding assay with fluorescein-tagged IκB peptide. The following applies: Tables 1, 3, 7, 8, 10 nM fluorescein-tagged IκB peptide. In general terms: Fluorescence polarisation rises when a labelled molecule tumbles more slowly, as on binding a larger partner.
Chain of βTrCP (Q9Y297 whole entry): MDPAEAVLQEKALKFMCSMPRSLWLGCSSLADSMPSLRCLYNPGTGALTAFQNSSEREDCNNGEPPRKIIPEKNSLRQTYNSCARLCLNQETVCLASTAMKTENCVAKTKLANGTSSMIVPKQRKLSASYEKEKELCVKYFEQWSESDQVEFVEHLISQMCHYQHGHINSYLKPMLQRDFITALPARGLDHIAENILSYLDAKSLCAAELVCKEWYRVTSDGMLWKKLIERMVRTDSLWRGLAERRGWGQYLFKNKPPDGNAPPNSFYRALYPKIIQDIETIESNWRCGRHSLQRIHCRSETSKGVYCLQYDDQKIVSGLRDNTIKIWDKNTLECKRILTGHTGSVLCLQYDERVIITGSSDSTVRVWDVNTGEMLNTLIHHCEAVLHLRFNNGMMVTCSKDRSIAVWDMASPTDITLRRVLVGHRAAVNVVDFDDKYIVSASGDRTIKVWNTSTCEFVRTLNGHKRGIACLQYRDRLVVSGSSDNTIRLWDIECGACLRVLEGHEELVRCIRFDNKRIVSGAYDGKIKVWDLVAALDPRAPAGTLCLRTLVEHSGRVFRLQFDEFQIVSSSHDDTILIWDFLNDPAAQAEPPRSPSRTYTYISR
Chain of βTrCP (P63208 whole entry partner): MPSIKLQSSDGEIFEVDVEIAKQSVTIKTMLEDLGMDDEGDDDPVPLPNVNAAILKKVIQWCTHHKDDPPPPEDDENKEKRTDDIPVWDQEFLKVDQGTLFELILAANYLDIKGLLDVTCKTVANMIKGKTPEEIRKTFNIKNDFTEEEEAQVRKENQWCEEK

Consider `C[C@H](NC(=O)CCC(=O)O)C(=O)NCC(=O)N[C@@H](Cc1ccccc1)C(=O)N[C@@H](Cc1ccccc1)C(=O)N[C@@H](CCC(=O)O)C(N)=O` [Suc-AGFFE-NH2] (Suc-AGFFE-NH2), for which the IC50 (read-out: FP Assay IC50/μM) is more than 100 µM.

Take `NC(=O)[C@H](Cc1cccc2ccccc12)NC(=O)[C@H](Cc1ccc([N+](=O)[O-])cc1)NC(=O)CNC(=O)[C@H](CCC(=O)O)NC(=O)CCC(=O)O` [Suc-EG-F(4NO2)-1Nal-NH2] (Suc-EG[Phe(4-NO2)][1Nal]-NH2): for the setting “read-out: FP Assay IC50/μM”, the IC50 came out at 14 µM.

Regarding `NC(=O)C[C@H](NC(=O)CNC(=O)[C@H](COP(=O)(O)O)NC(=O)[C@@H](N)CC(=O)O)C(=O)N[C@@H](Cc1ccccc1)C(=O)N[C@@H](CCC(=O)O)C(N)=O` [D-pS-GNFE-NH2] (H-D[pS]GNFE-NH2), the IC50 (read-out: FP Assay IC50/μM) was more than 100 µM.

`NC(=O)CC[C@H](NC(=O)[C@H](Cc1cccc2ccccc12)NC(=O)[C@H](Cc1cccc(F)c1)NC(=O)CNC(=O)[C@H](CCC(=O)O)NC(=O)CCC(=O)O)C(N)=O` [Suc-EG-F(3F)-1Nal-Q-NH2] (Suc-EG[Phe(3-F)][1Nal]Q-NH2): the IC50 (read-out: FP Assay IC50/μM) worked out at 7.22 µM.

Consider `CC[C@H](C)[C@H](NC(=O)CNC(=O)[C@H](CCC(=O)O)NC(=O)[C@H](N)CC(=O)O)C(=O)N[C@@H](Cc1ccccc1)C(=O)N[C@@H](CC(=O)O)C(N)=O` [dEGIFD-NH2] (H-[dD]EGIFD-NH2), for which, where the note is “read-out: FP Assay IC50/μM”, the IC50 was more than 100 µM.

As for `CC[C@H](C)[C@H](NC(=O)CNC(=O)[C@H](COP(=O)(O)O)NC(=O)[C@@H](N)CCC(=O)O)C(=O)N[C@@H](Cc1ccccc1)C(=O)N[C@@H](CCC(=O)O)C(N)=O` [E-pS-GIFE-NH2] (H-E[pS]GIFE-NH2), where the note is “read-out: FP Assay IC50/μM”, the IC50 was 34.5 µM.

For the compound `NC(=O)[C@H](Cc1ccc(F)cc1)NC(=O)[C@H](Cc1ccccc1)NC(=O)CNC(=O)[C@H](CCC(=O)O)NC(=O)CCC(=O)O` [Suc-EGF-F(4F)-NH2] (Suc-EGF[Phe(4-F)]-NH2), where the note is “read-out: FP Assay IC50/μM”, the IC50 is more than 100 µM.

With `NC(=O)[C@H](Cc1ccc([N+](=O)[O-])cc1)NC(=O)[C@H](Cc1ccc(O)cc1)NC(=O)CNC(=O)[C@H](CCC(=O)O)NC(=O)CCC(=O)O` [Suc-EGY-F(4NO2)-NH2] (Suc-EGY[Phe(4-NO2)]-NH2), under “read-out: FP Assay IC50/μM”, the IC50 stood at 91 µM.

`CC[C@H](C)[C@H](NC(=O)CNC(=O)[C@H](C)NC(=O)c1ccccc1C(=O)O)C(=O)N[C@@H](Cc1ccccc1)C(=O)N[C@@H](CCC(=O)O)C(N)=O` [Phth-AGIFE-NH2] ({Benzoyl(2-COOH)}-AGIFE-NH2): the IC50 (read-out: FP Assay IC50/μM) was more than 100 µM.

Turning to `CC[C@H](C)[C@H](NC(=O)CNC(=O)[C@H](COP(=O)(O)O)NC(=O)[C@H](CC(=O)O)NC(=O)[C@H](C)N)C(=O)N[C@@H](Cc1c[nH]cn1)C(=O)N[C@@H](CO)C(N)=O` [AD-pS-GIHS-NH2] (H-AD[pS]GIHS-NH2), the IC50 (read-out: FP Assay IC50/μM) is more than 100 µM.

As to DAGFFE-NH2 [DAGFFE-NH2], the IC50 (read-out: FP Assay IC50/μM) was more than 100 µM.

Take `CC[C@H](C)[C@H](NC(=O)CNC(=O)[C@H](COP(=O)(O)O)NC(=O)[C@@H](N)CC(=O)O)C(=O)N[C@@H](Cc1ccccc1)C(=O)N[C@@H](Cc1c[nH]cn1)C(N)=O` [D-pS-GIFH-NH2] (H-D[pS]GIFH-NH2): where the note is “read-out: FP Assay IC50/μM”, the IC50 is more than 100 µM.

Take DAGIFH-NH2 [DAGIFH-NH2]: under “read-out: FP Assay IC50/μM”, the IC50 is more than 100 µM.

As to `CC[C@H](C)[C@H](NC(=O)[C@H](Cc1c[nH]cn1)NC(=O)CNC(=O)[C@H](CO)NC(=O)[C@H](COP(=O)(O)O)NC(=O)[C@H](CC(=O)O)NC(=O)[C@@H](N)CC(C)C)C(=O)N[C@@H](CO)C(N)=O` [LD-pS-SGHIS-NH2] (H-LD[pS]SGHIS-NH2), the IC50 (read-out: FP Assay IC50/μM) is more than 100 µM.

Regarding `COC(=O)CC[C@H](NC(=O)[C@H](Cc1ccc(OC)cc1)NC(=O)[C@H](Cc1ccccc1)NC(=O)CNC(=O)[C@H](CCC(=O)O)NC(=O)CCC(=O)O)C(N)=O` [Suc-EGF-Y(Me)-E(OMe)-NH2] (Suc-EGFY(Me)E(OMe)-NH2), the IC50 (read-out: FP Assay IC50/μM) was 71 µM.

Compound H-DEGFFE-NH2 [DEGFFE-NH2] displayed an IC50 (FP Assay IC50/μM) of 43.6 µM.

In the case of `NC(=O)[C@H](Cc1cccc(F)c1)NC(=O)[C@H](Cc1ccc(O)cc1)NC(=O)CNC(=O)[C@H](CCC(=O)O)NC(=O)CCC(=O)O` [Suc-EGY-F(3F)-NH2] (Suc-EGY[Phe(3-F)]-NH2), where the note is “read-out: FP Assay IC50/μM”, the IC50 was 91 µM.

Take `C[C@H](NC(=O)[C@@H](N)CCC(=O)O)C(=O)N[C@@H](Cc1cccc(F)c1)C(=O)N[C@@H](Cc1ccc([N+](=O)[O-])cc1)C(=O)N[C@@H](CCC(=O)O)C(N)=O` [EA-F(3F)-F(4NO2)-E-NH2]: for the setting “read-out: FP Assay IC50/μM”, the IC50 was more than 100 µM.

As for `NC(=O)CC[C@H](NC(=O)CCC(=O)O)C(=O)NCC(=O)N[C@@H](Cc1ccc(O)cc1)C(=O)N[C@@H](Cc1ccccc1)C(=O)N[C@@H](CCC(=O)O)C(N)=O` [Suc-QGYFE-NH2], the IC50 (read-out: FP Assay IC50/μM) turned out to be 10.7 µM.

With `CC[C@H](C)[C@H](NC(=O)CNC(=O)[C@H](C)NC(=O)[C@H](N)CC(=O)O)C(=O)N[C@@H](Cc1ccccc1)C(=O)N[C@@H](CCCNC(=N)N)C(N)=O` [dAGIFR-NH2] (H-[dD]AGIFR-NH2), the IC50 (read-out: FP Assay IC50/μM) is more than 100 µM.

Regarding `NC(=O)[C@H](Cc1ccc([N+](=O)[O-])cc1)NC(=O)[C@H](Cc1ccccc1)NC(=O)CNC(=O)[C@H](CCC(=O)O)NC(=O)CCC(=O)O` [Suc-EGF-F(4NO2)-NH2] (Suc-EGF[Phe(4-NO2)]-NH2), the IC50 (read-out: FP Assay IC50/μM) is more than 100 µM.

For the compound LDASGIHS-NH2 [LDASGIHS-NH2], for the setting “read-out: FP Assay IC50/μM”, the IC50 was more than 100 µM.

As for `CC[C@H](C)[C@H](NC(=O)CNC(=O)[C@H](COP(=O)(O)O)NC(=O)[C@@H](N)CC(=O)O)C(=O)N[C@@H](Cc1c[nH]cn1)C(=O)N[C@@H](CO)C(N)=O` [D-pS-GIHS-NH2] (H-D[pS]GIHS-NH2), the IC50 (read-out: FP Assay IC50/μM) was more than 100 µM.

As for `NC(=O)[C@H](Cc1cccc(F)c1)NC(=O)[C@H](Cc1ccccc1F)NC(=O)CNC(=O)[C@H](CCC(=O)O)NC(=O)CCC(=O)O` [Suc-EG-F(2F)-F(3F)-NH2] (Suc-EG[Phe(2-F)][Phe(3-F)]-NH2), the IC50 (read-out: FP Assay IC50/μM) is more than 100 µM.

With `C[C@H](NC(=O)[C@H](CCC(=O)O)NC(=O)CCC(=O)O)C(=O)N[C@@H](Cc1ccccc1)C(=O)N[C@@H](Cc1ccccc1)C(=O)N[C@@H](CCC(=O)O)C(N)=O` [Suc-EAFFE-NH2], for the setting “read-out: FP Assay IC50/μM”, the IC50 turned out to be 59.8 µM.

On to `COc1ccc(C[C@H](NC(=O)[C@H](Cc2cccc(F)c2)NC(=O)CNC(=O)[C@H](CCC(=O)O)NC(=O)CCC(=O)O)C(=O)N[C@@H](CCC(=O)O)C(N)=O)cc1` [Suc-EG-F(3F)-Y(Me)-E-NH2] (Suc-EG[Phe(3-F)]Y(Me)E-NH2), for which the IC50 (read-out: FP Assay IC50/μM) came out at 1.4 µM.

`NC(=O)[C@H](CCC(=O)O)NC(=O)[C@H](Cc1cccc2ccccc12)NC(=O)[C@H](Cc1ccc([N+](=O)[O-])cc1)NC(=O)CNC(=O)[C@@H](N)CCC(=O)O` [EG-F(4NO2)-1Nal-E-NH2] (H-EG[Phe(4-NO2)][1Nal]E-NH2): the IC50 (read-out: FP Assay IC50/μM) was more than 100 µM.

On to `CC[C@H](C)[C@H](NC(=O)CNC(=O)[C@H](CCC(=O)O)NC(=O)CCC(=O)O)C(=O)N[C@@H](Cc1ccccc1)C(=O)N[C@@H](CCC(=O)O)C(N)=O` [Suc-EGIFE-NH2] (Suc-EGIFE-NH2), for which, under “read-out: FP Assay IC50/μM”, the IC50 was more than 100 µM.

Regarding DAGNFE-NH2 [DAGNFE-NH2], the IC50 (read-out: FP Assay IC50/μM) was more than 100 µM.

Take `NC(=O)[C@H](CCC(=O)O)NC(=O)[C@H](Cc1ccccc1)NC(=O)[C@H](Cc1ccccc1)NC(=O)CNC(=O)[C@H](CCC(=O)O)NC(=O)C1CCC(C(=O)O)CC1` (stereo partly shown) [1,4-Chda-EGFFE-NH2] (X6-EGFFE-NH2): where the note is “read-out: FP Assay IC50/μM”, the IC50 was more than 100 µM.

For the compound `NC(=O)[C@H](CCC(=O)O)NC(=O)[C@H](Cc1cccc2ccccc12)NC(=O)[C@H](Cc1cccc(F)c1)NC(=O)CNC(=O)[C@@H](N)CCC(=O)O` [EG-F(3F)-1Nal-E-NH2] (H-EG[Phe(3-F)][1Nal]E-NH2), the IC50 (read-out: FP Assay IC50/μM) is more than 100 µM.
